According to patent US9067894B1, “Compound, composition, and method of activating GIRK potassium channel and use of same for treating conditions of interest” (Vanderbilt University, priority 2013, dated 2015):

Key:
[1] = target: T1, Glutamate (NMDA, glycine) (Rattus norvegicus, UniProt P35439); test: Radioligand displacement (Ricerca); type: binding
T1 construct: Ricerca

GIRK2/3 = target: T2, GIRK2/3 (Homo sapiens, UniProt P48051+Q92806); test: Whole-cell voltage-clamp, GIRK2/3-expressing HEK-293 cells; type: cell-based; conditions: cell line GIRK2-3
T2 construct: expressed in transfected cells; host or cells: HEK-293
T2 sequence (P48051 1-423): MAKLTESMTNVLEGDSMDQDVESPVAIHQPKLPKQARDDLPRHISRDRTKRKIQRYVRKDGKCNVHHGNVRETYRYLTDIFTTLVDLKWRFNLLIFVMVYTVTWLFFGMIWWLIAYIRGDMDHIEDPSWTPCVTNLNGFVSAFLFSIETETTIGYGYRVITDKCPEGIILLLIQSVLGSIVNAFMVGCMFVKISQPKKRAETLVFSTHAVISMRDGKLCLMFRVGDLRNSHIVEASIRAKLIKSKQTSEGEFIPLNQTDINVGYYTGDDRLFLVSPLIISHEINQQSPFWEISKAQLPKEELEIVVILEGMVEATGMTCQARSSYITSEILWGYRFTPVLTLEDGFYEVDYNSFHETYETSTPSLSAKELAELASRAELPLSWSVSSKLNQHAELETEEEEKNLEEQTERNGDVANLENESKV
T2 sequence (Q92806 1-393): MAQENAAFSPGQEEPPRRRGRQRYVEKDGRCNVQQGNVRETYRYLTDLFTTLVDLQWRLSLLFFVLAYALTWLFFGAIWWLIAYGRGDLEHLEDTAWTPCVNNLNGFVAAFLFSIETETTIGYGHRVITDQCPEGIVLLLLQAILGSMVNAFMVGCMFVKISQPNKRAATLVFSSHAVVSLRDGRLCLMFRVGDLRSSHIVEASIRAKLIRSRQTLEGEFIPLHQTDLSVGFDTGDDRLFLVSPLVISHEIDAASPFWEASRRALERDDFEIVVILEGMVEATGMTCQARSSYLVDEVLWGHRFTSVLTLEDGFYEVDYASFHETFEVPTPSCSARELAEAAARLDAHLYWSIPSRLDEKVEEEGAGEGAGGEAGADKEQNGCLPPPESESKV
Excerpt: Cell Line Construction and Cell Culture. HEK-293 cells co-expressing human GIRK1/2 and rat mGlu8 were generated as previously described (Niswender et al., 2008). A HEK-293 cell line (ATCC, Manassas, Va.) expressing human GIRK1 and human GIRK2 was constructed by transfecting HEK-293 cells with GIRK1 and GIRK2 (Origene, Rockville, Md.) cloned into the pBudCE4.1 vector (Life Technologies, Carlsbad, Calif.) using FuGene 6 (Promega, Madison, Wis.) transfection reagent. […]
A single-cell suspension of HEK-293 cells stably transfected with the appropriate ion channels were plated into TC-treated 35 mm polystyrene dishes at ˜15% confluence and incubated overnight in a 5% CO2 cell culture incubator at 37° C. […] Whole cell currents were recorded in 20K extracellular solution at −70 mV using a Pico 1 amplifier (Tecella, Foothill Ranch, Calif.) controlled by WINWCP 4.X (University of Strathclyde, Glasgow, Scotland, UK). […] One day after transfection, cells were plate into 35 mm polystyrene dishes, incubated and recorded as described above. […]
Voltage-clamp data were analyzed by converting current amplitudes to current density by dividing by each cell's membrane capacitance estimated from capacitance compensation. […]

Cannabinoid CB1 = target: T3, Cannabinoid CB1 (Homo sapiens, UniProt P21554); test: Radioligand displacement (Ricerca); type: binding
T3 construct: Ricerca

Purinergic P2Y = test: Radioligand displacement (Ricerca); type: binding, rat; conditions: 10 μM
Adrenergic β1 = target: T4, Adrenergic β1 (Homo sapiens, UniProt P08588); test: Radioligand displacement (Ricerca); type: binding
T4 construct: Ricerca (contract assay)

Potassium channel KATP = test: Radioligand displacement (Ricerca); type: binding, human; conditions: 10 μM
Serotonin 5-HT1A = target: T5, Serotonin 5-HT1A (Homo sapiens, UniProt P08908); test: Radioligand displacement (Ricerca); type: binding
T5 construct: Ricerca (contract laboratory that ran the panel)

PAF = target: T6, PAF (Homo sapiens, UniProt P25105); test: Radioligand displacement (Ricerca); type: binding
T6 construct: Ricerca (contract laboratory that ran the panel)

Melatonin MT1 = target: T7, Melatonin MT1 (Homo sapiens, UniProt P48039); test: Radioligand displacement (Ricerca); type: binding
T7 construct: Ricerca (contract laboratory that ran the panel)

Opiate (KOP) = target: T8, Opiate (KOP) (Homo sapiens, UniProt P41145); test: Radioligand displacement (Ricerca); type: binding
T8 construct: Ricerca (contract laboratory that ran the panel)
T8 sequence (P41145 whole entry): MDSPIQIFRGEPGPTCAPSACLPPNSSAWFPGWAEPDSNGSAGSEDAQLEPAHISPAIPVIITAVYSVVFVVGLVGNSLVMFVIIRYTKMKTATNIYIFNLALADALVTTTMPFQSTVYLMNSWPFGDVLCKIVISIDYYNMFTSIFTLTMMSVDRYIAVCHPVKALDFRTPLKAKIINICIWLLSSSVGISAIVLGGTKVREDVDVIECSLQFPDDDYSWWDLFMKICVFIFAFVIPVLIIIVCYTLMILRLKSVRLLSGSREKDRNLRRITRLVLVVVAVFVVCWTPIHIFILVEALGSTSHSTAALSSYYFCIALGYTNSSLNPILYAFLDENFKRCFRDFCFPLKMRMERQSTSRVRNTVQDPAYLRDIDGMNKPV

T5 sequence (P08908 whole entry): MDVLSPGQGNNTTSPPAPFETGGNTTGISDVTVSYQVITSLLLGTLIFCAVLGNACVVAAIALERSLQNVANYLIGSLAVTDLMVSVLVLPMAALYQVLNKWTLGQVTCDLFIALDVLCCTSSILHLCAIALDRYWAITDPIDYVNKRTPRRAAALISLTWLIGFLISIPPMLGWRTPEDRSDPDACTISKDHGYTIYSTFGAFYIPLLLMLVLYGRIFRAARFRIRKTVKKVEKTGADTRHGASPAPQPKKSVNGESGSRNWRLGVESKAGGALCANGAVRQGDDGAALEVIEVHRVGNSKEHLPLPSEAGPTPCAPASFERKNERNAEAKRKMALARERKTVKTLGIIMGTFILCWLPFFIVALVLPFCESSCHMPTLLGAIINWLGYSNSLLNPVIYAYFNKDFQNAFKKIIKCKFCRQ
T7 sequence (P48039 whole entry): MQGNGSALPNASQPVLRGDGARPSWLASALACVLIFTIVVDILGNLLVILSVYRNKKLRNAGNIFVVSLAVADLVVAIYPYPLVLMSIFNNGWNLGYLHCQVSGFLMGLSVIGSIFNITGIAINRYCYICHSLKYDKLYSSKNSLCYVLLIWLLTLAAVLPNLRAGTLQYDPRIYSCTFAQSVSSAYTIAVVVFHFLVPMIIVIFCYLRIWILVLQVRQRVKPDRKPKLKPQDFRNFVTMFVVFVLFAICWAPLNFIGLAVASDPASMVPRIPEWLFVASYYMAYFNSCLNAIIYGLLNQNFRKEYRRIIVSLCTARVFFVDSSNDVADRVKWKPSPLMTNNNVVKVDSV
T3 sequence (P21554 whole entry): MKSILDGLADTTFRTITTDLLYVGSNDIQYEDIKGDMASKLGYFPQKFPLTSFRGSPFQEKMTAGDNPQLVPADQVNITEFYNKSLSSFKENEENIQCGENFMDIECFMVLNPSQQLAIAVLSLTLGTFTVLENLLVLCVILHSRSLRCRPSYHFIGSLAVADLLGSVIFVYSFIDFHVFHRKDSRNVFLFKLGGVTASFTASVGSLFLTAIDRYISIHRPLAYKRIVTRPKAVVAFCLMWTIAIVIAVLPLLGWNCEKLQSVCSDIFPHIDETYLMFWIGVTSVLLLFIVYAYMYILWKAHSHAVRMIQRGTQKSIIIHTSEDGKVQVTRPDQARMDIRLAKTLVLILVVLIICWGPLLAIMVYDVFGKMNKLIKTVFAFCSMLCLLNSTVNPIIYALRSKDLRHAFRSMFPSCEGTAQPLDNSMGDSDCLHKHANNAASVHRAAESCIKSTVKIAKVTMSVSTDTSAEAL
T6 sequence (P25105 whole entry): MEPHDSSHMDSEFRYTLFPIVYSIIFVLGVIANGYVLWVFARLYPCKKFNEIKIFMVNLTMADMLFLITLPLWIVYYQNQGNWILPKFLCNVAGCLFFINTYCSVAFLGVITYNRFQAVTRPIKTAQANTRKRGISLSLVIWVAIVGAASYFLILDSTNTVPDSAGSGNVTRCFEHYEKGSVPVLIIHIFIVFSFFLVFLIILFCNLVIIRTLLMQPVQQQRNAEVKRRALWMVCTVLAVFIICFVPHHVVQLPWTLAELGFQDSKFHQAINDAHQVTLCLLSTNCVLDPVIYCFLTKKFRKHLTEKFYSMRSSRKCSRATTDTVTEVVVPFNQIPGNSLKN
T4 sequence (P08588 whole entry): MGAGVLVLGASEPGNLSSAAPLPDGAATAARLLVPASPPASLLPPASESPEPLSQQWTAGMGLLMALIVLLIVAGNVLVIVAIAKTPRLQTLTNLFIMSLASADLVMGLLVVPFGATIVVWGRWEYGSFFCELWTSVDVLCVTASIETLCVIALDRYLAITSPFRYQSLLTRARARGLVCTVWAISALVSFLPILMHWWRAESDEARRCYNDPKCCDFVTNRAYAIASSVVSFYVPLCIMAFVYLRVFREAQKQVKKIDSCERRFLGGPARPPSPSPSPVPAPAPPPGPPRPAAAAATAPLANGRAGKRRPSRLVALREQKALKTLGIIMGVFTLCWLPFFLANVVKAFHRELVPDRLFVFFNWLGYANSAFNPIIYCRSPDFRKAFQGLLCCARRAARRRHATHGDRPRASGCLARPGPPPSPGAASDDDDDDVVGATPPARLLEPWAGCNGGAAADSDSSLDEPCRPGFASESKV

`Cc1cc(NC(=O)Nc2ccc(F)c(F)c2)n(-c2ccccc2)n1` [VU0456810, 1-(3,4-difluorophenyl)-3-(3-methyl-1-phenyl-1H-pyrazol-5-yl)urea] was tested, and the inhibition at 10 µM [1] was -25%, the “EC50 Voltage Clamp” value (GIRK2/3) was “Inactive” and the inhibition at 10 µM (Cannabinoid CB1) was 8%. The “% Inhibition” value (Purinergic P2Y) was 4%, the inhibition at 10 µM (Adrenergic β1) was 0% and the “% Inhibition” value (Potassium channel KATP) was 2%. It also gave an inhibition at 10 µM (Serotonin 5-HT1A) of 0%, an inhibition at 10 µM (PAF) of 2% and an inhibition at 10 µM (Melatonin MT1) of 11%. The inhibition at 10 µM (Opiate (KOP)) was 1%.
